Experiments:
Type in all cases: in vivo, human
erythropoietin (EPO) [1] = test: Phase 1b study: pharmacodynamics, Baseline-unadjusted serum EPO concentration
Description: PK and EPO Sample. For each vadadustat treatment group, blood samples for vadadustat PK (and its metabolites) and EPO were collected at the following time points: Day 1: predose, and at 1, 2, 3, 4, 5, 8, and 11 hours post dose; Day 2: 24 hours (−2 hours) post Day 1 dose; Day 6: blood sample for EPO analysis only was collected predose on Day 6; Day 8: predose, and at 1, 2, 3, 4, 5, 8, 11 hours post dose, Day 10 or EOT: predose. For the ESA treatment group, blood samples for analysis of EPO were collected at the following time points: Day 1: predose, and at 0.25, 1, 2, 3, 4, 5, 8, and 11 hours post dose; Day 2: 24 hours (−2 hours) post Day 1 dose.
PD Sampling. For all vadadustat and ESA treatment groups, in addition to EPO, blood samples for Hb, reticulocytes and iron indices for PD analyses were collected on Day 1, Day 6 and Day 10. Hepcidin were collected predose on Day 1, Day 6, and Day 10 for PD analysis.
Secondary Endpoints. For each treatment group, PD parameters included, but were not limited to, as deemed appropriate: hepcidin, erythropoietin (EPO), iron indices (iron, ferritin, total iron-binding capacity [TIBC], TSAT), Hb, and reticulocytes.
The summary of serum concentration of Baseline-unadjusted EPO by time for the vadadustat treatment groups in the PK population are presented in FIGS. 1a-11b and FIGS. 12a-12b. The summary of PD parameters for Baseline-unadjusted serum EPO concentration for vadadustat treatment groups by dosing days for the PK population are summarized in Table 2.

erythropoietin (EPO) [2] = test: Phase 2 study, Main Study: pharmacodynamics, Baseline-Adjusted serum EPO concentration
Description: (§1) PK/PD Endpoints. An exposure-response analysis of vadadustat and PD measures were conducted as deemed appropriate. The PK parameters included (but were not limited to) the following: area under concentration-time curve from dosing to last measurable concentration (AUClast), area under concentration-time curve from dosing to infinity (AUCinf), Cmax, apparent total body clearance (CL/F), apparent volume of distribution (Vd/F), and terminal half-life (t1/2). The PD parameters included (but were not limited to) the following: EPO, reticulocytes, iron, ferritin, TIBC, and hepcidin.
(§2) PK population: included all randomized subjects who received study drug (vadadustat or epoetin alfa) and had enough drug concentrations to estimate AUC and Cmax. Analysis of this population was based on the dose amount taken at the date of PK sampling for the vadadustat group.
PD parameters for serum EPO concentration are presented by epoetin alfa stratification for vadadustat treatment groups in Table 7, Table 8a and Table 8b (baseline-unadjusted) and Table 9, Table 10a and Table 10b (baseline-adjusted).

[3] = Phase 2 study, Main Study: pharmacokinetics (vadadustat and vadadustat-O-glucuronide concentration)
Description: as §1, §2

hemodialysis subjects = test: Main Study: vadadustat versus epoetin alfa in hemodialysis subjects (Hb, ESA/RBC rescue, EPO levels)
Description: The primary efficacy endpoint was to assess the mean change in Hb between baseline and the PEP (Weeks 10 to 12) in hemodialysis subjects.
The first key secondary efficacy endpoint was the proportion of subjects with Hb values within the target range (10.0 to 11.0 g/dL, inclusive) at the PEP (Weeks 10 to 12).
The second key secondary endpoint was the mean change in Hb from PEP (average Hb from Weeks 10 to 12) to the SEP (average Hb from Weeks 18 to 20) for subjects who transitioned to TIW vadadustat dosing. In the Main Study, the change in Hb from PEP to SEP for the 17 subjects who switched from QD to TIW was −0.4 g/dL.

[4] = Vada 150 mg, Week 11, High Epoetin Alfa Stratum >90 to <300 U/kg/week
[5] = Vada 150 mg, Week 11, Low Epoetin Alfa Stratum ≤90 U/kg/week
[6] = Vada 300 mg, Week 1 + 1, High Epoetin Alfa Stratum >90 to <300 U/kg/week
[7] = Vada 300 mg, Week 1 + 1, Low Epoetin Alfa Stratum ≤90 U/kg/week
[8] = Vada 300 mg, Week 1, High Epoetin Alfa Stratum >90 to <300 U/kg/week
[9] = Vada 300 mg, Week 1, Low Epoetin Alfa Stratum ≤90 U/kg/week
[10] = Vada 300 mg, Week 11, High Epoetin Alfa Stratum >90 to <300 U/kg/week
[11] = Vada 300 mg, Week 11, Low Epoetin Alfa Stratum ≤90 U/kg/week
[12] = Vada 450 mg, Week 1 + 1, High Epoetin Alfa Stratum >90 to <300 U/kg/week
[13] = Vada 450 mg, Week 1 + 1, Low Epoetin Alfa Stratum ≤90 U/kg/week
[14] = Vada 450 mg, Week 1, High Epoetin Alfa Stratum >90 to <300 U/kg/week
[15] = Vada 450 mg, Week 1, Low Epoetin Alfa Stratum ≤90 U/kg/week
[16] = Vada 450 mg, Week 11, High Epoetin Alfa Stratum >90 to <300 U/kg/week
[17] = Vada 450 mg, Week 11, Low Epoetin Alfa Stratum ≤90 U/kg/week
[18] = Vada 450 mg, Week 13, Low Epoetin Alfa Stratum ≤90 U/kg/week
[19] = Vada 600 mg, Week 1 + 1, High Epoetin Alfa Stratum >90 to <300 U/kg/week
[20] = Vada 600 mg, Week 1, High Epoetin Alfa Stratum >90 to <300 U/kg/week
[21] = Vada 600 mg, Week 11, High Epoetin Alfa Stratum >90 to <300 U/kg/week
[22] = Vada 600 mg, Week 11, Low Epoetin Alfa Stratum ≤90 U/kg/week
[23] = Vada 600 mg, Week 13, High Epoetin Alfa Stratum >90 to <300 U/kg/week
[24] = Vada 600 mg, Week 13, Low Epoetin Alfa Stratum ≤90 U/kg/week
[25] = Vada 750 mg, Week 11, High Epoetin Alfa Stratum >90 to <300 U/kg/week
[26] = Vada 750 mg, Week 11, Low Epoetin Alfa Stratum ≤90 U/kg/week
[27] = Vada 750 mg, Week 13, High Epoetin Alfa Stratum >90 to <300 U/kg/week
[28] = Vada 750 mg, Week 13, Low Epoetin Alfa Stratum ≤90 U/kg/week
[29] = Vada 900 mg, Week 11, High Epoetin Alfa Stratum >90 to <300 U/kg/week
[30] = Vada 900 mg, Week 11, Low Epoetin Alfa Stratum ≤90 U/kg/week

## O=C(O)CNC(=O)c1ncc(-c2cccc(Cl)c2)cc1O [Compound 1, {[5-(3-chlorophenyl)-3-hydroxypyridine-2-carbonyl]amino}acetic acid]
Erythropoietin (EPO) [1]; Vada 600 mg QD, Day 1
  Baseline-Unadjusted serum EPO Tmax, Median: 10.09 h
  Baseline-unadjusted serum EPO AUC0-11, Mean (SD): 319 (150) h · mU/mL
Erythropoietin (EPO) [1]; Vada 600 mg QD, Day 8
  Baseline-Unadjusted serum EPO Tmax, Median: 4.50 h
Erythropoietin (EPO) [1]; Vada 600 mg QD, Day 8 (AUClast)
  Baseline-unadjusted serum EPO AUC0-11, Mean (SD): 410 (286) h · mU/mL
Erythropoietin (EPO) [1]; Vada 750 mg QD, Day 1
  Baseline-Unadjusted serum EPO Tmax, Median: 10.94 h
  Baseline-unadjusted serum EPO AUC0-11, Mean (SD): 569 (623) h · mU/mL
Erythropoietin (EPO) [1]; Vada 750 mg QD, Day 8
  Baseline-Unadjusted serum EPO Tmax, Median: 5.01 h
Erythropoietin (EPO) [1]; Vada 750 mg QD, Day 8 (AUClast)
  Baseline-unadjusted serum EPO AUC0-11, Mean (SD): 677 (533) h · mU/mL
Erythropoietin (EPO) [1]; Vada 900 mg QD, Day 1
  Baseline-Unadjusted serum EPO Tmax, Median: 10.00 h
  Baseline-unadjusted serum EPO AUC0-11, Mean (SD): 455 (438) h · mU/mL
Erythropoietin (EPO) [1]; Vada 900 mg QD, Day 8
  Baseline-Unadjusted serum EPO Tmax, Median: 10.00 h
Erythropoietin (EPO) [1]; Vada 900 mg QD, Day 8 (AUClast)
  Baseline-unadjusted serum EPO AUC0-11, Mean (SD): 981 (1854) h · mU/mL
Erythropoietin (EPO) [2]; [4]
  Baseline-Adjusted Serum EPO Cmax, Geometric Mean: 4.29 µg/mL
  Baseline-Adjusted Serum EPO Tmax, Median: 0 h
Erythropoietin (EPO) [2]; [5]
  Baseline-Adjusted Serum EPO Cmax, Geometric Mean: 4.32 µg/mL
  Baseline-Adjusted Serum EPO Tmax, Median: 4.78 h
Erythropoietin (EPO) [2]; [6]
  Baseline-Adjusted Serum EPO Cmax, Geometric Mean: 7.2 µg/mL
  Baseline-Adjusted Serum EPO Tmax, Median: 0 h
Erythropoietin (EPO) [2]; [7]
  Baseline-Adjusted Serum EPO Cmax, Geometric Mean: 10.1 µg/mL
  Baseline-Adjusted Serum EPO Tmax, Median: 2.00 h
Erythropoietin (EPO) [2]; [8]
  Baseline-Adjusted Serum EPO Cmax, Geometric Mean: 9.1 µg/mL
  Baseline-Adjusted Serum EPO Tmax, Median: 0 h
Erythropoietin (EPO) [2]; [9]
  Baseline-Adjusted Serum EPO Cmax, Geometric Mean: 9.1 µg/mL
  Baseline-Adjusted Serum EPO Tmax, Median: 4.50 h
Erythropoietin (EPO) [2]; [10]
  Baseline-Adjusted Serum EPO Cmax, Geometric Mean: 33.8 µg/mL
  Baseline-Adjusted Serum EPO Tmax, Median: 0 h
Erythropoietin (EPO) [2]; [11]
  Baseline-Adjusted Serum EPO Cmax, Geometric Mean: 14.5 µg/mL
  Baseline-Adjusted Serum EPO Tmax, Median: 1.00 h
Erythropoietin (EPO) [2]; [12]
  Baseline-Adjusted Serum EPO Cmax, Geometric Mean: 10.0 µg/mL
  Baseline-Adjusted Serum EPO Tmax, Median: 0 h
Erythropoietin (EPO) [2]; [13]
  Baseline-Adjusted Serum EPO Cmax, Geometric Mean: 11.8 µg/mL
  Baseline-Adjusted Serum EPO Tmax, Median: 4.50 h
Erythropoietin (EPO) [2]; [14]
  Baseline-Adjusted Serum EPO Cmax, Geometric Mean: 14.0 µg/mL
  Baseline-Adjusted Serum EPO Tmax, Median: 4.50 h
Erythropoietin (EPO) [2]; [15]
  Baseline-Adjusted Serum EPO Cmax, Geometric Mean: 18.1 µg/mL
  Baseline-Adjusted Serum EPO Tmax, Median: 1.75 h
Erythropoietin (EPO) [2]; [16]
  Baseline-Adjusted Serum EPO Cmax, Geometric Mean: 15.5 µg/mL
  Baseline-Adjusted Serum EPO Tmax, Median: 0.88 h
Erythropoietin (EPO) [2]; [17]
  Baseline-Adjusted Serum EPO Cmax, Geometric Mean: 8.00 µg/mL
  Baseline-Adjusted Serum EPO Tmax, Median: 2.08 h
Erythropoietin (EPO) [2]; [18]
  Baseline-Adjusted Serum EPO Cmax, Geometric Mean: 11.4 µg/mL
  Baseline-Adjusted Serum EPO Tmax, Median: 3.94 h
Erythropoietin (EPO) [2]; [19]
  Baseline-Adjusted Serum EPO Cmax, Geometric Mean: 18.9 µg/mL
  Baseline-Adjusted Serum EPO Tmax, Median: 2.47 h
Erythropoietin (EPO) [2]; [20]
  Baseline-Adjusted Serum EPO Cmax, Geometric Mean: 26.0 µg/mL
  Baseline-Adjusted Serum EPO Tmax, Median: 0 h
Erythropoietin (EPO) [2]; [21]
  Baseline-Adjusted Serum EPO Cmax, Geometric Mean: 14.6 µg/mL
  Baseline-Adjusted Serum EPO Tmax, Median: 0.92 h
Erythropoietin (EPO) [2]; [22]
  Baseline-Adjusted Serum EPO Cmax, Geometric Mean: 13.7 µg/mL
  Baseline-Adjusted Serum EPO Tmax, Median: 4.00 h
Erythropoietin (EPO) [2]; [23]
  Baseline-Adjusted Serum EPO Cmax, Geometric Mean: 173.0 µg/mL
  Baseline-Adjusted Serum EPO Tmax, Median: 4.63 h
Erythropoietin (EPO) [2]; [24]
  Baseline-Adjusted Serum EPO Cmax, Geometric Mean: 8.1 µg/mL
  Baseline-Adjusted Serum EPO Tmax, Median: 7.08 h
Erythropoietin (EPO) [2]; [25]
  Baseline-Adjusted Serum EPO Cmax, Geometric Mean: 14.8 µg/mL
  Baseline-Adjusted Serum EPO Tmax, Median: 4.75 h
Erythropoietin (EPO) [2]; [26]
  Baseline-Adjusted Serum EPO Cmax, Geometric Mean: 3.91 µg/mL
  Baseline-Adjusted Serum EPO Tmax, Median: 4.50 h
Erythropoietin (EPO) [2]; [27]
  Baseline-Adjusted Serum EPO Cmax, Geometric Mean: 6.8 µg/mL
  Baseline-Adjusted Serum EPO Tmax, Median: 0 h
Erythropoietin (EPO) [2]; [28]
  Baseline-Adjusted Serum EPO Cmax, Geometric Mean: 7.7 µg/mL
  Baseline-Adjusted Serum EPO Tmax, Median: 4.50 h
Erythropoietin (EPO) [2]; [29]
  Baseline-Adjusted Serum EPO Cmax, Geometric Mean: 21.4 µg/mL
  Baseline-Adjusted Serum EPO Tmax, Median: 0 h
Erythropoietin (EPO) [2]; [30]
  Baseline-Adjusted Serum EPO Cmax, Geometric Mean: 10.8 µg/mL
  Baseline-Adjusted Serum EPO Tmax, Median: 0 h

## O=C(O)CNC(=O)c1ncc(-c2cccc(Cl)c2)cc1O [vadadustat, {[5-(3-chlorophenyl)-3-hydroxypyridine-2-carbonyl]amino}acetic acid]
Erythropoietin (EPO) [1]; 600, 750, 900 mg QD, Day 1 and Day 8
  EPO response: variable EPO response
Erythropoietin (EPO) [1]; Day 8
  EPO after administration versus dose: dose-dependent increase of EPO
[3]; TIW group
  concentrations versus dose: No dose dependent increases in concentrations
[3]; Week 1, Week 1+1 day, and Week 11
  mean concentration versus time profiles, dose dependency: concentrations increased with dose levels
Hemodialysis subjects; Baseline (inclusive) to Week 12 (inclusive), compared to epoetin alfa treated subjects
  subjects receiving ESA administration as rescue: more
Hemodialysis subjects; Baseline (inclusive) to Week 20 (inclusive), compared to epoetin alfa treated subjects
  subjects receiving any ESA administration: more
Hemodialysis subjects; Main Study, 17 subjects who switched from QD to TIW
  change in Hb from PEP (Weeks 10 to 12) to SEP (Weeks 18 to 20): -0.4 g/dL
Hemodialysis subjects; Main Study, baseline to PEP (Weeks 10 to 12), compared to epoetin alfa treatment group, throughout
  mean change from baseline in Hb: numerically lower
Hemodialysis subjects; Main Study, compared to epoetin alfa
  mean (SD) Hb overall at Weeks 10 to 12: lower
Hemodialysis subjects; Main Study, compared to epoetin alfa treatment group
  mean change in Hb between baseline and the SEP: lower
Hemodialysis subjects; across treatment groups, all study periods
  proportion of subjects with RBC transfusion and RBC transfusion as rescue: similar
Hemodialysis subjects; high epoetin alfa stratum, vadadustat 300 mg, after Week 10 Hb began to return towards baseline
  change from baseline in Hb: decrease from baseline in Hb up to Week 10
Hemodialysis subjects; high epoetin alfa stratum, vadadustat groups (particularly 300 mg) compared to epoetin alfa treatment group
  number of subjects within target Hb range: numerically lower
Hemodialysis subjects; low epoetin alfa stratum, except for the vadadustat 300 mg group throughout treatment
  change from baseline in Hb: no decrease from baseline in Hb was observed
Hemodialysis subjects; vadadustat 300 mg group of the high epoetin alfa stratum, lowest proportion
  proportion of subjects with Hb values within the target range (10.0 to 11.0 g/dL, inclusive) at Weeks 10 to 12: 8.3%

— patent publication US12697330B2, “Therapeutic methods using vadadustat” (Akebia Therapeutics, Inc., priority 2021, dated 2026)
